Like-named read-outs stand apart in the source and are kept apart here.
Legend:
P. falciparum strain 3D7 = test: Plasmodium falciparum growth inhibition assay (Picogreen DNA content, three-day incubation); format: cell-based; conditions: for S.I. + pyruvate (Supplemental Table 4): MetHb EC50 / parasite EC50, with pyruvate; for S.I. - pyruvate (Supplemental Table 4): MetHb EC50 / parasite EC50, without pyruvate; for S.I. Fold Change (Supplemental Table 4): change in S.I. with versus without pyruvate
Experimental: (§1) Banked blood (Saint Louis Children’s Hospital) and fresh blood [healthy donors] was washed and stored at 50% hematocrit at 4°C up to 1 month past the clinical expiration date and collection date, respectively. Parasite strains provided by the Malaria Research and Reference Reagent Resource Center (MR4) as follows: 3D7 (MRA-102); K1 (MRA-159); D10 (MRA-201); and IPC-5202 (MRA-1240). Unless indicated, erythrocytes were cultured as previously described at 2% hematocrit in complete media (incomplete media supplemented with 27mM sodium bicarbonate, 11mM glucose, 5mM HEPES, 1mM sodium pyruvate, 0.37mM hypoxanthine, 0.01mM thymidine, 10µg/mL gentamicin, and 0.5% Albumax I (Thermo-Fisher) under 5% O2/5% CO2/90% N2 atmosphere at 37°C ([Guggisberg et al., 2014]).
Asynchronous cultures diluted to 1% parasitemia in 100μL wells were subjected to drug dilutions, solvent controls, and untreated uninfected erythrocyte controls in technical duplicates. Following a three-day incubation, DNA content was quantified using Picogreen (Life Technologies), as previously described ([Corbett et al., 2004]). Half-maximal effective concentrations (EC50) were determined from nonlinear regression of three biological replicates (GraphPad Prism).

human erythrocytes = test: Detection and quantification of MetHb formation in cultured erythrocytes; format: cell-based; conditions: MetHb formation, 500 = highest concentration tested
Experimental: as §1
MetHb was detected by measuring absorbance in the 630-640nm range, which is specific from other hemoglobin subforms (oxyhemoglobin, deoxyhemoglobin, and carboxyhemoglobin). Supernatants were removed and erythrocyte pellets were fully lysed and diluted, as described above. The absorption peak for oxyhemoglobin (575nm) and MetHb (630nm) were measured and the EC50 of MetHb formation was determined using non-linear regression analysis (GraphPad Prism).

P. berghei ANKA = format: in vivo, Swiss Webster mice; conditions: 2DG 200 mg/kg
Experimental: (§2) Groups of five female Swiss-Webster mice were injected intraperitoneally (i.p.) with 10^3 luciferase-expressing P. berghei ANKA parasites ([Franke-Fayard et al., 2008]). Forty-eight hours post infection, mice were injected i.p. daily for five days with either 200µL of 2% methylcellulose/0.5% Tween80, 40mg/kg chloroquine, 100mg/kg HEX, 30mg/kg POM-HEX, or 5mg/kg POM-SF. Enolase inhibitors dosing were selected as approximately 3-fold lower than the maximum acutely tolerated dose for each compound by i.p. injection. Day 7 post-infection, mice were injected with 150mg/kg D-luciferin potassium salt in PBS (GoldBio) and imaged on an IVIS 100 and parasite burden assessed (Xenogen LivingImage).
The glucose mimetic 2-DG and enolase inhibitors POM-HEX, and HEX were evaluated in the P. berghei mouse model of cerebral malarial, as previously described ([Wang et al., 2018]). Briefly, in addition to groups of mice (n = 5) dosed as described above for POM-HEX and HEX, 2-DG was administered to an additional group (n = 5) at 200mg/kg twice daily and all were monitored for survival, parasitemia (blood smear Giemsa), and clinical signs of cerebral malaria (paralysis, deviation of the head, ataxia, convulsions, and coma) over 15 days.

P. falciparum = system: P. falciparum; design: method as in Vennerstrom et al., 1999; Phillips et al., 2015; conditions: ref Vennerstrom et al., 1999; Phillips et al., 2015; read-out: EC50, in vitro potency of other antimalarial compounds; cited from earlier work
[1] = system: luciferase-expressing P. berghei ANKA parasites; test: In vivo efficacy against blood stage parasite burden (luciferase imaging); design: species or system Swiss-Webster mice; conditions: i.p. daily for five days; 30mg/kg POM-HEX, 5mg/kg POM-SF
Experimental: as §2

[2] = system: P. falciparum IPC-5202 (chloroquine and artemisinin resistant); test: Plasmodium falciparum growth inhibition assay, drug-resistant line IPC-5202; format: cell-based; conditions: chloroquine and artemisinin resistant, means ± s.e.m, read-out: EC50 (nM), P. falciparum IPC-5202
Experimental: (§3) Banked blood (Saint Louis Children’s Hospital) and fresh blood [healthy donors] was washed and stored at 50% hematocrit at 4°C up to 1 month past the clinical expiration date and collection date, respectively. Parasite strains provided by the Malaria Research and Reference Reagent Resource Center (MR4) as follows: 3D7 (MRA-102); K1 (MRA-159); D10 (MRA-201); and IPC-5202 (MRA-1240). […]
(§4) Asynchronous cultures diluted to 1% parasitemia in 100μL wells were subjected to drug dilutions, solvent controls, and untreated uninfected erythrocyte controls in technical duplicates. Following a three-day incubation, DNA content was quantified using Picogreen (Life Technologies), as previously described ([Corbett et al., 2004]). Half-maximal effective concentrations (EC50) were determined from nonlinear regression of three biological replicates (GraphPad Prism). […]
(§5) Supplemental Table 5. […] Half-maximal inhibitor concentrations (EC50s) were determined for drug resistant malaria parasites and compared to the sensitive 3D7 strain. The respective EC50s are calculated from each of the independent biological replicates using a non-linear regression of the log of the inhibitor concentration with data from each technical replicate normalized to maximal and minimal growth using the software package GraphPad Prism. […]
(§6) means ± s.e.m calculated from three biological replicates.

[3] = system: P. falciparum D10 (mefloquine resistant); test: Plasmodium falciparum growth inhibition assay, drug-resistant line D10; format: cell-based; conditions: D10, mefloquine resistant, means ± s.e.m, read-out: EC50 (nM), P. falciparum D10
Experimental: as §3, §4, §5, §6

[4] = system: P. falciparum K1 (chloroquine and sulfadoxine-pyrimethamine resistant); test: Plasmodium falciparum growth inhibition assay, drug-resistant line K1; format: cell-based; conditions: K1, chloroquine and sulfadoxine-pyrimethamine resistant, means ± s.e.m, read-out: EC50 (nM), P. falciparum K1
Experimental: as §3, §4, §5, §6

[5] = P. falciparum growth, with pyruvate, read-out: Parasite EC50 + pyruvate (Supplemental Table 4)
[6] = P. falciparum growth, without pyruvate, 500 = highest concentration tested, read-out: Parasite EC50 - pyruvate (Supplemental Table 4)
[7] = with pyruvate, read-out: MetHb EC50 + pyruvate (Supplemental Table 4)
[8] = without pyruvate, read-out: MetHb EC50 - pyruvate (Supplemental Table 4)

CC1(P(=O)(O)O)CC(O)N(O)C1=O (centres unmarked) [MethylSF-2312]
S.I. + pyruvate (Supplemental Table 4) (P. falciparum strain 3D7): 19.2 | S.I. - pyruvate (Supplemental Table 4) (P. falciparum strain 3D7): 3.8 | EC50 (P. falciparum strain 3D7; [5]): 26000 ± 2900 nM | EC50 (P. falciparum strain 3D7; [6]): 130000 ± 3500 nM | S.I. Fold Change (Supplemental Table 4) (P. falciparum strain 3D7): 5.1 | EC50 (human erythrocytes; [7]): > 500 µM | EC50 (human erythrocytes; [8]): > 500 µM

O=C1C(P(=O)(O)O)CCN1O (centres unmarked) [DeoxySF-2312]
S.I. + pyruvate (Supplemental Table 4) (P. falciparum strain 3D7): 16.7 | S.I. - pyruvate (Supplemental Table 4) (P. falciparum strain 3D7): 6.3 | EC50 (P. falciparum strain 3D7; [5]): 30000 ± 9700 nM | EC50 (P. falciparum strain 3D7; [6]): 80000 ± 2000 nM | S.I. Fold Change (Supplemental Table 4) (P. falciparum strain 3D7): 2.7 | selectivity for antiparasitic activity over erythrocyte toxicity (in words) (P. falciparum strain 3D7; parasite growth versus MetHb formation): notably selective | EC50 (human erythrocytes; [7]): > 500 µM | EC50 (human erythrocytes; [8]): > 500 µM

O=CC[C@@H](O)[C@H](O)[C@H](O)CO [Compound 2-DG, 2-deoxyglucose, reference compound]
effect on clinical score, overall survival, cerebral malaria (in words) (P. berghei ANKA; POM-HEX 30 mg/kg): did not improve | parasitemia (P. berghei ANKA; d4, blood smear Giemsa, treated from day 2, HEX 100 mg/kg, control 7.8±3.3%): 13.3±3.9%

COc1cc(C)c2c(Oc3cccc(C(F)(F)F)c3)c(OC)cc(NC(C)CCCN)c2n1 (centres unmarked) [tafenoquine]
EC50 (P. falciparum): 0.436 µM

CC(C)OC(=O)C(C)NP(=O)(Oc1ccccc1)C1CCCN(O)C1=O (centres unmarked) [SDR6]
S.I. + pyruvate (Supplemental Table 4) (P. falciparum strain 3D7): 8.3 | S.I. - pyruvate (Supplemental Table 4) (P. falciparum strain 3D7): 10.4 | EC50 (P. falciparum strain 3D7; [5]): 60000 ± 13000 nM | EC50 (P. falciparum strain 3D7; [6]): 48000 ± 2800 nM | S.I. Fold Change (Supplemental Table 4) (P. falciparum strain 3D7): 0.8 | EC50 (human erythrocytes; [7]): > 500 µM | EC50 (human erythrocytes; [8]): > 500 µM

O=C1C(P2(=O)NCCCO2)CCCN1O (centres unmarked) [PKM J45]
S.I. + pyruvate (Supplemental Table 4) (P. falciparum strain 3D7): 5.3 | S.I. - pyruvate (Supplemental Table 4) (P. falciparum strain 3D7): 14.3 | EC50 (P. falciparum strain 3D7; [5]): 94000 ± 4700 nM | EC50 (P. falciparum strain 3D7; [6]): 35000 ± 3100 nM | S.I. Fold Change (Supplemental Table 4) (P. falciparum strain 3D7): 0.4 | EC50 (human erythrocytes; [7]): > 500 µM | EC50 (human erythrocytes; [8]): > 500 µM

CC(C)(C)C(=O)OCOP(=O)(OCOC(=O)C(C)(C)C)C1CC(O)N(O)C1=O (centres unmarked) [POM-SF]
effect on parasite burden (in words) [1]: does not forestall a lethal parasite burden | EC50 [2]: 321 ± 11 nM | S.I. + pyruvate (Supplemental Table 4) (P. falciparum strain 3D7): 1.9 | S.I. - pyruvate (Supplemental Table 4) (P. falciparum strain 3D7): 0.1 | EC50 (P. falciparum strain 3D7; Plasmodium falciparum, 3D7, 72 h, P. falciparum growth, presence of 1mM pyruvate, mean ± s.e.m., read-out: Parasite EC50 + pyruvate): 250 ± 10 nM | EC50 (P. falciparum strain 3D7; Plasmodium falciparum, 3D7, P. falciparum growth, absence of 1mM pyruvate, mean ± s.e.m., 500 = highest concentration tested, EC50 not resolved, read-out: Parasite EC50 - pyruvate): 710 ± 40 nM | EC50 (P. falciparum strain 3D7; Plasmodium falciparum, 3D7, means ± s.e.m, three biological replicates, read-out: EC50 (nM), P. falciparum 3D7 (pan-sensitive)): 185 ± 18 nM | S.I. Fold Change (Supplemental Table 4) (P. falciparum strain 3D7): 13.6 | T.I. Fold change (P. falciparum strain 3D7; change in T.I. with versus without 1mM pyruvate): 13.6 | T.I. + pyruvate (P. falciparum strain 3D7; therapeutic index = [EC50 for MetHb formation]/[EC50 for parasite growth inhibition], with 1mM pyruvate): 1.9 | T.I. - pyruvate (P. falciparum strain 3D7; therapeutic index = [EC50 for MetHb formation]/[EC50 for parasite growth inhibition], without pyruvate): 0.1 | EC50 [3]: 437 ± 83 nM | EC50 [4]: 361 ± 34 nM | EC50 (human erythrocytes; Homo sapiens, Erythrocyte, absence of 1mM pyruvate, mean ± s.e.m., EC50 not resolved, read-out: MetHb EC50 - pyruvate): 0.1 ± 0.002 µM | EC50 (human erythrocytes; Homo sapiens, Erythrocyte, presence of 1mM pyruvate, mean ± s.e.m., EC50 not resolved, read-out: MetHb EC50 + pyruvate): 0.48 ± 0.01 µM

CC(C)OC(=O)OCOP(=O)(OCOC(=O)OC(C)C)C1CCCN(O)C1=O (centres unmarked) [Compound J52]
S.I. + pyruvate (Supplemental Table 4) (P. falciparum strain 3D7): 0.3 | S.I. - pyruvate (Supplemental Table 4) (P. falciparum strain 3D7): 0.3 | EC50 (P. falciparum strain 3D7; [5]): 1600 ± 4000 nM | EC50 (P. falciparum strain 3D7; [6]): 2900 ± 400 nM | S.I. Fold Change (Supplemental Table 4) (P. falciparum strain 3D7): 1.2 | EC50 (human erythrocytes; [7]): 0.49 ± 0.02 µM | EC50 (human erythrocytes; [8]): 0.77 ± 0.04 µM

O=C1C(P(=O)(O)O)CC(O)N1O (centres unmarked) [SF-2312, reference compound]
S.I. + pyruvate (Supplemental Table 4) (P. falciparum strain 3D7): 18.5 | S.I. - pyruvate (Supplemental Table 4) (P. falciparum strain 3D7): 2.8 | EC50 (P. falciparum strain 3D7; [5]): 27000 ± 2000 nM | EC50 (P. falciparum strain 3D7; [6]): 180000 ± 9300 nM | EC50 (P. falciparum strain 3D7; asexual P. falciparum, phosphonates, read-out: half maximal effective concentrations (EC50s), parasite growth): > 15000 nM | S.I. Fold Change (Supplemental Table 4) (P. falciparum strain 3D7): 6.6 | EC50 (human erythrocytes; [7]): > 500 µM | EC50 (human erythrocytes; [8]): > 500 µM

CC(=O)ON1CCCC(P(=O)(OCOC(=O)C(C)(C)C)OCOC(=O)C(C)(C)C)C1=O (centres unmarked) [SDR23]
S.I. + pyruvate (Supplemental Table 4) (P. falciparum strain 3D7): 1.6 | S.I. - pyruvate (Supplemental Table 4) (P. falciparum strain 3D7): 0.6 | EC50 (P. falciparum strain 3D7; [5]): 1600 ± 110 nM | EC50 (P. falciparum strain 3D7; [6]): 2100 ± 250 nM | S.I. Fold Change (Supplemental Table 4) (P. falciparum strain 3D7): 2.5 | EC50 (human erythrocytes; [7]): 2.5 ± 0.34 µM | EC50 (human erythrocytes; [8]): 1.3 ± 0.07 µM

Cc1cc(Nc2ccc(S(F)(F)(F)(F)F)cc2)n2nc(C(C)(F)F)nc2n1 [DSM265]
EC50 (P. falciparum): 0.053 µM

CC(C)OC(=O)C(C)NP(=O)(NC(C)C(=O)OC(C)C)C1CCCN(O)C1=O (centres unmarked) [SDR4]
S.I. + pyruvate (Supplemental Table 4) (P. falciparum strain 3D7): 6.8 | S.I. - pyruvate (Supplemental Table 4) (P. falciparum strain 3D7): 15.6 | EC50 (P. falciparum strain 3D7; [5]): 73000 ± 8700 nM | EC50 (P. falciparum strain 3D7; [6]): 32000 ± 2400 nM | S.I. Fold Change (Supplemental Table 4) (P. falciparum strain 3D7): 0.4 | EC50 (human erythrocytes; [7]): > 500 µM | EC50 (human erythrocytes; [8]): > 500 µM
